The record followed here is patent US10246466B2, “Diaryl macrocycles as modulators of protein kinases” (TP THERAPEUTICS, INC., priority 2014, dated 2019).

Data set [1] concerns the target ALK (Homo sapiens (Human), UniProt Q9UM73). The data set can be described thus: KINOMEscan kinase binding assay (DiscoveRx). How it is done:
(§1) For most assays, kinase-tagged T7 phage strains were prepared in an E. coli host derived from the BL21 strain. E. coli were grown to log-phase and infected with T7 phage and incubated with shaking at 32° C. until lysis. The lysates were centrifuged and filtered to remove cell debris. The remaining kinases were produced in HEK-293 cells and subsequently tagged with DNA for qPCR detection. […] The liganded beads were blocked with excess biotin and washed with blocking buffer (SeaBlock (Pierce), 1% BSA, 0.05% Tween 20, 1 mM DTT) to remove unbound ligand and to reduce nonspecific binding. […] All reactions were performed in polystyrene 96-well plates in a final volume of 0.135 mL. […] The kinase concentration in the eluates was measured by qPCR.

In data set [2] the target is ROS1 (Homo sapiens (Human), UniProt P08922). Description: KINOMEscan kinase binding assay (DiscoveRx). As for the experimental part:
(§2) Kinase binding assays were performed at DiscoveRx using the general KINOMEscan Kd Protocol (Fabian, M. A. et al., “A small molecule-kinase interaction map for clinical kinase inhibitors,” Nat. Biotechnol. 2005, 23(3):329-36). For most assays, kinase-tagged T7 phage strains were prepared in an E. coli host derived from the BL21 strain. E. coli were grown to log-phase and infected with T7 phage and incubated with shaking at 32° C. until lysis. The lysates were centrifuged and filtered to remove cell debris. The remaining kinases were produced in HEK-293 cells and subsequently tagged with DNA for qPCR detection. Streptavidin-coated magnetic beads were treated with biotinylated small molecule ligands for 30 minutes at room temperature to generate affinity resins for kinase assays. The liganded beads were blocked with excess biotin and washed with blocking buffer (SeaBlock (Pierce), 1% BSA, 0.05% Tween 20, 1 mM DTT) to remove unbound ligand and to reduce nonspecific binding. […] All reactions were performed in polystyrene 96-well plates in a final volume of 0.135 mL. […] The beads were then re-suspended in elution buffer (1×PBS, 0.05% Tween 20, 0.5 μM non-biotinylated affinity ligand) and incubated at room temperature with shaking for 30 minutes. The kinase concentration in the eluates was measured by qPCR.

Data set [3] addresses TRKA (Homo sapiens (Human), UniProt P04629). Description: KINOMEscan kinase binding assay (DiscoveRx). As for the experimental part: as §2
Data set [4] deals with Colorectal cell line KM12 (harboring endogenous TPM3-TRKA fusion gene). The data set can be described thus: KM12 cell proliferation assay (CellTiter-Glo). In kind it is cell-based. As to conditions: Homo sapiens, 72 hours incubation, read-out: KM 12 cell prolif. IC50. How it is done:
Colorectal cell lines KM 12 (harboring endogenous TPM3-TRKA fusion gene) cells were cultured in DMEM medium, supplemented with 10% fetal bovine serum and 100 U/mL of penicillin/streptomycin. 5000 cells were seeded in 384 well white plate for 24 hours before compounds treatment. Cell proliferation was measured using CellTiter-Glo luciferase-based ATP detection assay (Promega) following the manufactures's protocol after 72 hours incubation. IC50 determinations were performed using GraphPad Prism software (GraphPad, Inc., San Diego, Calif.).
Alternatively: Colorectal cell line KM12 (harboring endogenous TPM3-TRKA fusion gene) cells were cultured in DMEM medium, supplemented with 10% fetal bovine serum and 100 U/mL of penicillin/streptomycin. […] 5000 cells were seeded in 384 well white plate for 24 hours before compounds treatment. Cell proliferation was measured using CellTiter-Glo luciferase-based ATP detection assay (Promega) following the manufactures's protocol after 72 hours incubation. IC50 determinations were performed using GraphPad Prism software (GraphPad, Inc., San Diego, Calif.).

The subject of data set [5] is Essential thrombocythemia cell line SET-2 cells (harboring endogenous JAK2 point mutation). Description: SET-2 cell proliferation assay (CellTiter-Glo). In kind it is cell-based. As to conditions: Homo sapiens, 72 hours incubation, read-out: SET2 cell proli. IC50. (In general: In ATP-based viability assays light output follows the ATP content of the culture.)
Data set [6] relates to T cell lymphoma Karpas-299 cell line (harboring endogenous NPM-ALK fusion gene). The data set can be described thus: Karpas-299 cell proliferation assay (CellTiter-Glo). In kind it is cell-based. Conditions: Homo sapiens, 72 hours incubation, read-out: Karpas 299 cell proli. IC50.
Data set [7] concerns the target JAK2 (Homo sapiens (Human), UniProt O60674). Description: KINOMEscan kinase binding assay (DiscoveRx). As for the experimental part:
as §1

The target in data set [8] is JAK1 (Homo sapiens (Human), UniProt P23458). The data set can be described thus: KINOMEscan kinase binding assay (DiscoveRx). How it is done: as §2
Data set [9] deals with JAK3 (Homo sapiens (Human), UniProt P52333). The data set can be described thus: KINOMEscan kinase binding assay (DiscoveRx). How it is done:
as §2

In data set [10] the test system is Ba/F3-EML4-ALK wild type cell line. Description: EML4-ALK Ba/F3 cell proliferation assay (CellTiter-Glo). In kind it is cell-based. As to conditions: 48 hours incubation. As for the experimental part:
The EML4-ALK wild-type gene (variant 1) was synthesized at GenScript and cloned into pCDH-CMV-MCS-EF1-Puro plasmid (System Biosciences, Inc). Ba/F3-EML4-ALK wild type cell line was generated by infecting Ba/F3 cells with lentivirus containing EML4-ALK wide-type. Stable cell lines were selected by puromycin treatment, followed by IL-3 withdrawal. 5000 cells were seeded in 384 well white plate overnight before compound treatment. Cell proliferation was measured using CellTiter-Glo luciferase-based ATP detection assay (Promega) following the manufactures's protocol after 48 hours of various concentration of compound incubation. IC50 determinations were performed using GraphPad Prism software (GraphPad, Inc., San Diego, Calif.).

In general, Kd refers to the free concentration of one partner at which half of the binding sites on the other are occupied at equilibrium, for simple one-to-one binding. The low end stands for higher affinity, the high end for lower affinity. As a reminder, the IC50 is the concentration that inhibits the measured activity by half.

Bounds are passed on as bounds.

Chain of JAK3 (P52333 whole entry): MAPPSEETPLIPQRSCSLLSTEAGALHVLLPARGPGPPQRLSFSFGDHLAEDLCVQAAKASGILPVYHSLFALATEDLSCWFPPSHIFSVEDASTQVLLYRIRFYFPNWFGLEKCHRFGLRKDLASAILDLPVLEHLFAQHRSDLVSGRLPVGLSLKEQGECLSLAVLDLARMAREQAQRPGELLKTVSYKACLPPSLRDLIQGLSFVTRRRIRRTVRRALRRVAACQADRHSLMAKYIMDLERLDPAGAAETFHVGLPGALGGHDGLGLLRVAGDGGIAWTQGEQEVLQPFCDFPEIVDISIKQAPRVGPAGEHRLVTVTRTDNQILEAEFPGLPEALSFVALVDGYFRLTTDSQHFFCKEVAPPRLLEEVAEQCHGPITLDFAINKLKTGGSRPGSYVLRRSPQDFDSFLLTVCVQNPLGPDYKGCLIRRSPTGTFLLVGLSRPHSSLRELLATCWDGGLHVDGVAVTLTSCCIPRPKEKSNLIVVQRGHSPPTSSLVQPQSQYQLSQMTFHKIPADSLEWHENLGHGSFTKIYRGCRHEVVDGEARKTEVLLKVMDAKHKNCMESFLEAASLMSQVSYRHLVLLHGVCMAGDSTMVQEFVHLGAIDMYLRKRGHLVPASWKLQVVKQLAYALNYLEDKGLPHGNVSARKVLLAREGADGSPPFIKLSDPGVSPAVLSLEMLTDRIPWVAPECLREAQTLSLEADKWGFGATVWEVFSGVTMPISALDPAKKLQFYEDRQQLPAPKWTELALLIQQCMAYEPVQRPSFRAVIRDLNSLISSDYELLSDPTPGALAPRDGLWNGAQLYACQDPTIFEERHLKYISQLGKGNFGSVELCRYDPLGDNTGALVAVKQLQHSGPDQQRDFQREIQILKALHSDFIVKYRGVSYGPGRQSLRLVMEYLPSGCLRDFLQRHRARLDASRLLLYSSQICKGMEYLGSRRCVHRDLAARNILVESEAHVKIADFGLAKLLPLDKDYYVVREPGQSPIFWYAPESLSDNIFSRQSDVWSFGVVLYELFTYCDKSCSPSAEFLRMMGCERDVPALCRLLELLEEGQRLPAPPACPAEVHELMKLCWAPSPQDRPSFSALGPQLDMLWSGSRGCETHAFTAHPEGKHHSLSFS
Chain of JAK2 (O60674 whole entry): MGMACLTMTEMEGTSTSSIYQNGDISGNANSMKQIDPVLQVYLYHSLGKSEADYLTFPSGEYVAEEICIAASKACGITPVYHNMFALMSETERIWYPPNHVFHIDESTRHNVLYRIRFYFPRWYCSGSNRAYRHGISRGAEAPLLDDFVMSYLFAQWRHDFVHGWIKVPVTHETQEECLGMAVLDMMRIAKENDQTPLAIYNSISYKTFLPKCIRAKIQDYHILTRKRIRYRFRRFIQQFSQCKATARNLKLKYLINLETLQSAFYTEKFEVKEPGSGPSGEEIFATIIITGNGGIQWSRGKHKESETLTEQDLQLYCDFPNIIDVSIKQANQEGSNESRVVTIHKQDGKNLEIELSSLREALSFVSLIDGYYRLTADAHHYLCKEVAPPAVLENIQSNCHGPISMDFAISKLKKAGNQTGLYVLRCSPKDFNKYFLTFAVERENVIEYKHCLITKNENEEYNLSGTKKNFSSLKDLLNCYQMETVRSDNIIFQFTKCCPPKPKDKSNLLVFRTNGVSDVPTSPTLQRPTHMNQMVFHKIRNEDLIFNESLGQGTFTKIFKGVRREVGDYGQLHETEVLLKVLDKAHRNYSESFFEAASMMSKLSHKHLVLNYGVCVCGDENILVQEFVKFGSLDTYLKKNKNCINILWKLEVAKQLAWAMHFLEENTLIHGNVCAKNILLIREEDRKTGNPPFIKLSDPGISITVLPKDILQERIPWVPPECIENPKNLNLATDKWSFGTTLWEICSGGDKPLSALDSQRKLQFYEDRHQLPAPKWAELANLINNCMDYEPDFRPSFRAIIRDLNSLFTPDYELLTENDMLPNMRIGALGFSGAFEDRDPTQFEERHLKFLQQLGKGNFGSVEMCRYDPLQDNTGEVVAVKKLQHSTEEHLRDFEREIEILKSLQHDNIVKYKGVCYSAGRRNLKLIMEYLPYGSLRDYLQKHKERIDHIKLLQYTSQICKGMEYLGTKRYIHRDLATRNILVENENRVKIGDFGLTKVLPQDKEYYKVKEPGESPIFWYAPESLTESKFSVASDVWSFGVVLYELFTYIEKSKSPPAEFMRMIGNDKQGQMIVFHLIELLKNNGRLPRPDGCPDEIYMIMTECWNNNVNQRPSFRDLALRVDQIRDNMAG
Chain of ALK (Q9UM73 19-1620): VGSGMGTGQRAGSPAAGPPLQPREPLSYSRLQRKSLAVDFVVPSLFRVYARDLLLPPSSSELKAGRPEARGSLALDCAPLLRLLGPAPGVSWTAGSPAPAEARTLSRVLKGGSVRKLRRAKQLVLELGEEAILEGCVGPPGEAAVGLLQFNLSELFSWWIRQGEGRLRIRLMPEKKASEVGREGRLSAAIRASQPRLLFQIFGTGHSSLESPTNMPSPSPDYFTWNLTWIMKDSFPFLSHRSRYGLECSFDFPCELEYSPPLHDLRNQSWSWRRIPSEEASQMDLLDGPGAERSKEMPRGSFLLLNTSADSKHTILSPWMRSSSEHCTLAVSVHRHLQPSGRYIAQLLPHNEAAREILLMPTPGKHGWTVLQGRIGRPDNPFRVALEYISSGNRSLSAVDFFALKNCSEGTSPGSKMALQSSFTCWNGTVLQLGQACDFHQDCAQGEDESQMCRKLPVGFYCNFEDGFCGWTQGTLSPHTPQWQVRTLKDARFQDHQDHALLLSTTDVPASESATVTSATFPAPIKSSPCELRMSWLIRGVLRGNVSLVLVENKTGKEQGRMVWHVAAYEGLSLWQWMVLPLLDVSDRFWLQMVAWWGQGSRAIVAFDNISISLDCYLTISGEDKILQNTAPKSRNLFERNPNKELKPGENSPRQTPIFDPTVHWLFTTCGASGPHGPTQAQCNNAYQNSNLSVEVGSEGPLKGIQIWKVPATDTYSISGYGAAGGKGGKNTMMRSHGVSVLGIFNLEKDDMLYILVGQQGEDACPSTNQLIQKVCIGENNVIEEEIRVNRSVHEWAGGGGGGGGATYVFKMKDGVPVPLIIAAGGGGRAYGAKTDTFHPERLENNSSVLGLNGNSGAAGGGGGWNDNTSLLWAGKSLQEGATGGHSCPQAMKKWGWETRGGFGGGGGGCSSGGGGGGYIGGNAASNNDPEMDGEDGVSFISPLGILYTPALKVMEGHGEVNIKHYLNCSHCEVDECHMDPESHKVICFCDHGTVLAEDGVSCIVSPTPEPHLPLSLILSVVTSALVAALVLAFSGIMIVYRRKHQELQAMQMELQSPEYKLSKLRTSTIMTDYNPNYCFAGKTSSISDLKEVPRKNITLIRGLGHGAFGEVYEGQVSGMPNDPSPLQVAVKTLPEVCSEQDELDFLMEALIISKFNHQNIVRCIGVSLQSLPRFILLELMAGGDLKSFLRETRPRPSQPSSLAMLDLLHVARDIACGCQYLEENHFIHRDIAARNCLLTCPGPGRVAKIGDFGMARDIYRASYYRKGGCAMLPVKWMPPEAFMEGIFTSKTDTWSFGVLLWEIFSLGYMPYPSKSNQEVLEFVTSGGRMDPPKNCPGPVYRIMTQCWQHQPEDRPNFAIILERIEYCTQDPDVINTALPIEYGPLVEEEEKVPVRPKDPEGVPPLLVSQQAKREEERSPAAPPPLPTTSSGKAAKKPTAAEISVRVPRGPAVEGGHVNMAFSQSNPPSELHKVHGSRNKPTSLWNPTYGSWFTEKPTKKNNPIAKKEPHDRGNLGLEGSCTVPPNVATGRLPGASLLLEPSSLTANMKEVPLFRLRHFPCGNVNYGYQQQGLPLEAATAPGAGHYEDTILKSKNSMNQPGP
Chain of TRKA (P04629 33-796): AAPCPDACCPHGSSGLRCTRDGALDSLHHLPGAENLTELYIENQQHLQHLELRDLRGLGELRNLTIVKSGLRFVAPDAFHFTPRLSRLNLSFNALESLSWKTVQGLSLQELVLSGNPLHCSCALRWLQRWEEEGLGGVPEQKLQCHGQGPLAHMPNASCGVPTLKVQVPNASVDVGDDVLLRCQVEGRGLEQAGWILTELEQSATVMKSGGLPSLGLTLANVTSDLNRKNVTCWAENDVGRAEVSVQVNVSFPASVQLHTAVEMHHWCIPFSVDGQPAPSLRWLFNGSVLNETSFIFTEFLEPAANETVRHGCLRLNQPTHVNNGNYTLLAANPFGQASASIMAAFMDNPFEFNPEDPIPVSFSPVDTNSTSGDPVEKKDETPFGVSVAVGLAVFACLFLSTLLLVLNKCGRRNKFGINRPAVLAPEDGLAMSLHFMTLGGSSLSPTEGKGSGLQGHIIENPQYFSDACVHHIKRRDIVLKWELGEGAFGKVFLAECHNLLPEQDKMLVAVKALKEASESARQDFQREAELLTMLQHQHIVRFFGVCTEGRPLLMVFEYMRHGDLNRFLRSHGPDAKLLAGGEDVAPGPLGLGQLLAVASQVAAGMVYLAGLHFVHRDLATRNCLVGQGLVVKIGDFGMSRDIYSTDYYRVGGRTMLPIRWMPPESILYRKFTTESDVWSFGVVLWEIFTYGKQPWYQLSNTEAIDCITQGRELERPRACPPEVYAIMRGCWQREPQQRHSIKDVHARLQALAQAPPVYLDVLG

For `CC1Oc2ccn3ncc(c3n2)C(=O)NCCOc2ccc(F)c(Cl)c21` (stereo not shown) [Example 11-1, 12-chloro-11-fluoro-13-methyl-6,7-dihydro-13H-1,15-ethenopyrazolo[4,3-f][1,10,4,8] benzodioxadiazacyclotridecin-4(5H)-one], the figures for the dissociation constant (Kd) in data set [1], in [2] and in [3] were above 30000 nM, 1900 nM and 1900 nM, respectively. The IC50 in data set [4], in [5] and in [6] was above 10000 nM each time.

`CN1Cc2c(ccc(F)c2Cl)OCCNC(=O)c2cnn3ccc1nc23` [Example 39, 12-chloro-11-fluoro-14-methyl-6,7,13,14-tetrahydro-1,15-ethenopyrazolo[4,3-f][1,4,8,10]benzoxatriazacyclotridecin-4(5H)-one]: the dissociation constant (Kd) in [1] amounted to 180 nM; in data set [7], 27 nM; in data set [2], 4.7 nM; in data set [3], 0.23 nM. Further, the IC50 is 3.8 nM in data set [4], 8800 nM in [5] and 3800 nM in data set [6].

Regarding `Cc1nn2ccc3nc2c1C(=O)NCCOc1ccc(F)cc1CN3C` [Example 40, 11-fluoro-3,14-dimethyl-6,7,13,14-tetrahydro-1,15-ethenopyrazolo[4,3-f][1,4,8,10]benzoxatriazacyclotridecin-4(5H)-one], the dissociation constant Kd in data set [1] came out at 600 nM; in data set [2], 410 nM. In addition, the IC50 is 204 nM in data set [4], above 10000 nM in [5] and above 10000 nM in [6].

Consider `CC1Oc2ccc3ncc(n3n2)C(=O)NCCOc2ccc(F)cc21` (stereo not shown) [Example 41, 10-fluoro-8-methyl-15,16-dihydro-8H-3,6-ethenoimidazo[5,1-f][1,10,4,7,8]benzodioxatriazacyclotridecin-17(14H)-one], for which the Kd came out at 200 nM in [1]; 2.6 nM in data set [7]; 280 nM in data set [8]; 33 nM in [9]; 6 nM in data set [3]. Also, the half-inhibitory concentration (IC50) was 118 nM in data set [4], 1500 nM in data set [5] and 3900 nM in data set [6].

Take `CC1Nc2ccn3ncc(c3n2)C(=O)NCCOc2ccc(F)cc21` (stereo not shown) [Example 51, 11-fluoro-13-methyl-6,7,13,14-tetrahydro-1,15-ethenopyrazolo[4,3-f][1,4,8,10]benzoxatriazacyclotridecin-4(5H)-one]: the dissociation constant Kd amounted to 0.15 nM in data set [7], 65 nM in [8], 4.3 nM in data set [9] and 0.065 nM in [3]. Also, the IC50 in data set [4] came to 3.2 nM; in data set [5], 425 nM; in data set [6], 832 nM.

With `C[C@H]1Nc2ccn3ncc(c3n2)C(=O)NCCOc2ccc(F)cc21` [Example 51-1, (13R)-11-fluoro-13-methyl-6,7,13,14-tetrahydro-1,15-ethenopyrazolo[4,3-f][1,4,8,10]benzoxatriazacyclotridecin-4(5H)-one], the dissociation constant (Kd) amounted to 6.8 nM in [1]; 0.048 nM in [7]; 37 nM in data set [8]; 1.8 nM in data set [9]; 0.73 nM in [2]; 0.051 nM in data set [3]. The concentration for half-maximal inhibition (IC50) in [4] stood at 1.3 nM; in data set [5], 234 nM; in [6], 289 nM. The “EML4-ALK Ba/F3 cell proli. TC50” value in [10] turned out to be 248 nM.

Take `CC1Nc2ccn3ncc(c3n2)C(=O)NCCOc2ccc(F)c(Cl)c21` (stereo not shown) [Example 52, 12-chloro-11-fluoro-13-methyl-6,7,13,14-tetrahydro-1,15-ethenopyrazolo[4,3-f][1,4,8,10]benzoxatriazacyclotridecin-4(5H)-one]: the equilibrium dissociation constant (Kd) in [1] is 270 nM; in [2] it was 62 nM; in data set [3] it was 6.5 nM. Further, the half-maximal inhibitory concentration (IC50) in data set [4] was found to be 52 nM; in data set [5], 3600 nM; in data set [6] it was 7800 nM.

Regarding `C[C@@H]1CNC(=O)c2cnn3ccc(nc23)N[C@H](C)c2cc(F)ccc2O1` [Example 92, (7R,13R)-11-fluoro-7,13-dimethyl-6,7,13,14-tetrahydro-1,15-ethenopyrazolo[4,3-f][1,4,8,10]benzoxatriazacyclotridecin-4(5H)-one], the results for the half-maximal inhibitory concentration (IC50) in data set [4], in [5] and in data set [6] were 0.3 nM, 142 nM and 88.7 nM, respectively. For the same compound, in [10], the “EML4-ALK Ba/F3 cell proli. TC50” value is listed as 78.6 nM.

For `C[C@H]1CNC(=O)c2cnn3ccc(nc23)N[C@H](C)c2cc(F)ccc2O1` [Example 93, (7S,13R)-11-fluoro-7,13-dimethyl-6,7,13,14-tetrahydro-1,15-ethenopyrazolo[4,3-f][1,4,8,10]benzoxatriazacyclotridecin-4(5H)-one], the IC50 in data set [4] is 0.5 nM; in data set [5], 242 nM. The “EML4-ALK Ba/F3 cell proli. TC50” value in [10] is on record as 21.1 nM.

Turning to `O=C1NCCCOc2ccc(F)cc2CCc2ccn3ncc1c3n2` [Example 103, 12-fluoro-5,6,7,8,14,15-hexahydro-4H-1,16-ethenopyrazolo[4,3-g][1,5,9]benzoxadiazacyclotetradecin-4-one], the dissociation constant (Kd) in data set [1] is 28 nM; in data set [7], 1.9 nM. Besides, the IC50 was 15 nM in [4], above 10000 nM in data set [5] and 1960 nM in [6].
